From patent US10619195B2, “Gene-expression profiling with reduced numbers of transcript measurements” (Massachusetts Institute of Technology, priority 2010, dated 2020)

Legend:
[1] = system: histone-deacetylase (HDAC) inhibitor query signature; assay: Original Connectivity Map (Affymetrix microarrays) queried with an HDAC-inhibitor query signature; assay type: cell-based, human; conditions: published HDAC-inhibitor query signature (Glaser et al.), n=12, p-value<0.001, highest score
Excerpt: The term “Connectivity Map” as used herein, refers to a public database of transcriptome-wide gene-expression profiles derived from cultured human cells treated with a plurality of perturbagens, and pattern-matching algorithms for the scoring and identification of significant similarities between those profiles and external gene-expression data, as described by Lamb et al., “The Connectivity Map: using gene-expression signatures to connect small molecules, genes and disease”. Science 313:1929 (2006). Build02 of the Connectivity Map contains 7,056 full-transcriptome gene-expression profiles generated with Affymetrix high-density oligonucleotide microarrays representing the biological effects of 1,309 small-molecule perturbagens, and is available at broadinstitute.org/cmap.
The term “enrichment score” as used herein, refers to a measure of the similarity of the biological effects of a perturbagen used to generate a query signature with those of a perturbagen represented in the Connectivity Map based upon the gene-expression profiles of multiple independent treatments with that perturbagen. […]

[2] = system: histone-deacetylase (HDAC) inhibitor query signature; assay: L1000 analog of Connectivity Map (1,000 landmark transcripts by LMF plus inference) queried with an HDAC-inhibitor query signature; assay type: cell-based, human; conditions: L1000 dataset, MCF7 cells; published HDAC-inhibitor query signature (Glaser et al.); n=8, p-value<0.001; highest scoring perturbagen
Excerpt: This example described one method for the generation of transcriptome-wide gene-expression profiles using measurement of the expression levels of a sub-transcriptome number of cluster centroid landmark transcripts. The present method uses the LMF moderate multiplex gene-expression analysis platform described by Peck et al. (“A method for high-throughput gene expression signature analysis” Genome Biology 7:R61 2006), the Luminex FlexMAP 3D optically-addressed microspheres and flow-cytometric detection system, 1,000 cluster centroid landmark transcripts (and corresponding gene-specific sequences) validated for LMF from Example III (above), a corresponding dependency matrix from Example III (above), 50 empirically-determined invariant transcripts with expression levels spanning the range of those observed, and 1,050 barcode sequences developed. The FlexMAP 3D system allows simultaneous quantification of 500 distinct analytes in samples arrayed in the wells of a 384-well plate. […]
MCF7 cells were treated with small molecules and corresponding vehicles in 384-well plates. […] The captured amplicons were labeled with phycoerythrin and the resulting microsphere populations were analyzed using a FlexMAP 3D instrument in accordance with the manufacturer's instructions. […]

[3] = system: canonical NF-κB signaling pathway (BIOCARTA_NFKB_PATHWAY); assay: Gene-Set Enrichment Analysis of L1000 profiles from macrophages treated with LPS; assay type: cell-based; conditions: primary human macrophages, LPS versus vehicle control; L1000 inferred profiles; 512 gene sets tested; p<0.001
Procedure: The expression levels of 1,000 cluster centroid transcripts were measured in primary human macrophages following treatment with lipopolysaccharide (LPS) or vehicle control, and used to create gene-expression profiles composed of expression levels for 22,268 transcripts, according to the L1000 methods described in Example IV.
LPS is known to be a potent activator of the NF-KB transcription-factor complex (Qin et al., “LPS induces CD40 gene expression through the activation of NF-κB and STAT-1a in macrophages and microglia” Blood 106: 3114-3122 2005).

Row | Compound | enrichment score [1] | enrichment score [2] | GSEA score of the BIOCARTA_NFKB_PATHWAY gene set (23 members) [3]
1 | O=C(CCCCCCC(=O)Nc1ccccc1)NO [vorinostat] | 0.973 | 0.921 | 
2 | lipopolysaccharide [LPS] |  |  | highest score of all gene sets tested
